Experimental data: PMC9264368, “Structural Analysis and Development of Notum Fragment Screening Hits” (ACS Chemical Neuroscience, 2022)
Where two headings read alike, the source gives them in different places.

How the values were obtained:
Notum [1] = target: T1, Notum (Homo sapiens, UniProt Q6P988, C330S); settings: for fold improvement in Notum inhibition: versus parent: 7 vs 26, 16a vs 16, 15a vs 15, 7c vs 7b; for IC50: read-out: Notum IC50, Table S1, mean ± s.d. of N = 2-4 unless stated; for LE (ligand efficiency): LE = 1.4(−pIC50)/HAC; for LLE (lipophilic ligand efficiency): LLE = pIC50 – clogP; for LE / LLE: supplementary CSV
T1 sequence (Q6P988 81-451 C330S): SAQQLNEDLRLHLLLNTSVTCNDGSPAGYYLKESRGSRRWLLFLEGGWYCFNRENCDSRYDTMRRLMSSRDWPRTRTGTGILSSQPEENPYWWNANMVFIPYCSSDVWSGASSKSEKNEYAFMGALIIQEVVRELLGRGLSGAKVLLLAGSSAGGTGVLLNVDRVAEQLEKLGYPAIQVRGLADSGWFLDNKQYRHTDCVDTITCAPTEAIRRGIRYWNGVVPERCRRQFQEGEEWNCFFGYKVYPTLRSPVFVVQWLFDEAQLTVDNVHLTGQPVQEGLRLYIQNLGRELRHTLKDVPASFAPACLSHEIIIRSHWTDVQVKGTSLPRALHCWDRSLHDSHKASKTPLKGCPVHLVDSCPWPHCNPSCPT

Notum [2] = target: T1, Notum; assay: biochemical
[3] = Notum IC50, OPTS substrate, 10-point curves 30 nM to 1 mM, mean ± s.d. of N = 2–4 unless stated, Table 1 and figures
[4] = IC50 (µM), supplementary CSV, Notum IC50 values for 1–58
[5] = pIC50, Table 1, Notum OPTS assay

Row | Compound | IC50 (Notum [2]; [3]) [µM] | LE (ligand efficiency) (Notum [1]) | LLE (lipophilic ligand efficiency) (Notum [1]) | LE (Notum [1]) | LLE (Notum [1]) | other results
1 | OCc1cn(-c2ccc(Cl)c(C(F)(F)F)c2Cl)nn1 [7c] |  |  |  |  |  | fold improvement in Notum inhibition (Notum [1]): 7 fold
2 | Cc1cccc2[nH]c(NC#N)nc12 [15a, N-(4-Methyl-1H-benzo[d]imidazol-2-yl)cyanamide] | 0.94 ± 0.06 |  |  |  |  | fold improvement in Notum inhibition (Notum [1]): 18 fold
3 | Cn1c(NC#N)nc2ccccc21 [15b] |  |  |  |  |  | IC50 (Notum [1]): 5 ± 0.77 µM
4 | N#CNc1nc2c(Cl)cccc2[nH]1 [15c] |  |  |  |  |  | IC50 (Notum [1]): 2.2 ± 0.31 µM
5 | N#CNc1nc2c(Br)cccc2[nH]1 [15d] |  |  |  |  |  | IC50 (Notum [1]): 2.3 ± 0.54 µM
6 | N#CNc1nc2c(C(F)(F)F)cccc2[nH]1 [15e] |  |  |  |  |  | IC50 (Notum [1]): 12 ± 1.4 µM
7 | COc1cccc2[nH]c(NC#N)nc12 [15f] |  |  |  |  |  | IC50 (Notum [1]): 14 ± 1.3 µM
8 | Cc1ccc2[nH]c(NC#N)nc2c1 [15g] |  |  |  |  |  | IC50 (Notum [1]): 100 ± 4.4 µM
9 | N#CNc1nc2cc(Cl)ccc2[nH]1 [15h] |  |  |  |  |  | IC50 (Notum [1]): 29 ± 16 µM
10 | N#CNc1nc2cc(Br)ccc2[nH]1 [15i] |  |  |  |  |  | IC50 (Notum [1]): 15 ± 3.7 µM
11 | N#CNc1nc2cc(C(F)(F)F)ccc2[nH]1 [15j] |  |  |  |  |  | IC50 (Notum [1]): 36 ± 5.7 µM
12 | Cc1cccc2c1nc(NC#N)n2C [15k] |  |  |  |  |  | IC50 (Notum [1]): 9.3 ± 3.8 µM
13 | Cc1cccc2nc(NC#N)n(C)c12 [15l] |  |  |  |  |  | IC50 (Notum [1]): 2.2 ± 0.48 µM
14 | Cc1ccc2[nH]c(NC#N)nc2c1C [15m] |  |  |  |  |  | IC50 (Notum [1]): 18 ± 5.1 µM
15 | FC(F)(F)c1cc(-c2cc[nH]n2)ccc1Cl [16a] | 1.4 ± 0.1 |  |  |  |  | fold improvement in Notum inhibition (Notum [1]): 2.3 fold
16 | FC(F)(F)c1cc(CNCc2ccc3c(c2)OCO3)ccc1Cl [28a, 1-(Benzo[d][1,3]dioxol-5-yl)-N-(4-chloro-3-(trifluoromethyl)benzyl)methanamine] | 16 ± 1.5 |  |  |  |  | 
17 | CCNC(=O)Nc1cc(C)on1 [compound 1] | > 1000 |  |  |  |  | IC50 (Notum [2]; [4]): > 1000 µM
18 | CC(=O)Nc1cccc2nonc12 [compound 2] | 140 ± 31 | 0.42 | 2.5 | 0.42 | 2.5 | 

Row | Compound | IC50 (Notum [2]; [3]) [µM] | LE (ligand efficiency) (Notum [1]) | LLE (lipophilic ligand efficiency) (Notum [1]) | LE (Notum [1]) | LLE (Notum [1]) | other results
19 | c1cnc(Oc2ccc(-c3cc[nH]n3)cc2)nc1 [compound 5, 2-[4-(1H-Pyrazol-3-yl)phenoxy]pyrimidine] | 480 ± 82 | 0.25 | 1.3 | 0.25 | 1.3 | 
20 | Cc1nc2ccccn2c1C(=O)NCC(C)C [compound 10] | 700 ± 100 | 0.26 | 0.6 | 0.26 | 0.6 | 
21 | Nc1ccc(S(=O)(=O)Nc2ccccn2)cc1 [compound 11, 4-Amino-N-(2-pyridin-2-yl)benzenesulfonamide] | > 1000 |  |  |  |  | IC50 (Notum [2]; [4]): > 1000 µM
22 | Nc1ccccc1OCc1ccccc1 [compound 13, 2-(Benzyloxy)aniline] | 280 ± 110 | 0.33 | 0.6 | 0.33 | 0.6 | 
23 | N#CNc1nc2ccccc2[nH]1 [compound 15] | 17 ± 0.9 | 0.56 | 3.5 |  | 3.5 | 
24 | Oc1c(F)cc(F)cc1-c1cc[nH]n1 [compound 16] | 3.3 ± 0.4 | 0.55 | 3.6 | 0.55 | 3.6 | IC50 (Notum [2]; [5]): 3.16 µM
25 | Nc1ccc(NCc2cccnc2)c(C(=O)O)c1 [compound 18] | 63 ± 12 | 0.32 | 3.0 | 0.32 | 3 | 
26 | Cc1ccc(CN(C)Cc2ccccc2)o1 [compound 21] | 930 ± 69 | 0.26 | -0.4 | 0.26 | -0.4 | 
27 | CCOc1cccc(-c2nnc(N)s2)c1 [compound 22] | 93 ± 7 | 0.38 | 1.8 | 0.38 | 1.8 | IC50 (Notum [2]; [5]): 100 µM
28 | N#CCN1CCN(c2cccc(Cl)c2)CC1 [compound 23] | 600 ± 59 | 0.28 | 0.7 |  | 0.7 | 
29 | NCc1cc(-c2ccccc2)no1 [compound 24] | 12 ± 3.2 | 0.53 | 3.7 | 0.53 | 3.7 | 
30 | CC(=O)Nc1ccc(Nc2ccccc2)cc1 [compound 25, N-(4-Anilinophenyl)acetamide] | 86 ± 21 | 0.36 | 1.6 | 0.36 | 1.6 | 
31 | c1ccc(CNCc2ccc3c(c2)OCO3)nc1 [compound 28, 1-(Benzo[d][1,3]dioxol-5-yl)-N-(pyridine-2-ylmethyl)methanamine] | 54 ± 6.2 | 0.33 | 3.2 | 0.33 | 3.2 | 
32 | O=C(NO)OCc1ccccc1 [compound 29, Benzyl N-hydroxycarbamate] |  |  |  |  |  | response in fluorescence in Notum OPTS assay (Notum [1]; at higher concentrations (>100 μM), likely assay interference): variable, supramaxial responses in fluoresence
33 | O=S1(=O)CCN(Cc2ccco2)CC1 [compound 30] | > 1000 |  |  |  |  | IC50 (Notum [2]; [4]): > 1000 µM
34 | Nc1ccccc1Nc1ccccn1 [compound 33] | 500 ± 64 | 0.33 | 1.6 | 0.33 | 1.6 | 
35 | COCC(=O)Nc1nc(-c2ccccc2)cs1 [compound 35] | 120 ± 24 | 0.32 | 1.6 | 0.32 | 1.6 | 
36 | CC1CCN(Cc2c[nH]c3ccccc23)CC1 [compound 38] | 120 ± 49 | 0.32 | 0.2 | 0.32 | 0.2 | 

The next lines start with results.

Row | IC50 (Notum [2]; [3]) [µM] | LE (ligand efficiency) (Notum [1]) | LLE (lipophilic ligand efficiency) (Notum [1]) | LE (Notum [1]) | LLE (Notum [1]) | Compound | other results
37 | 54 ± 16 | 0.35 | 1.7 | 0.35 | 1.7 | OCc1ccc(-n2cnc3ccccc32)cc1 [compound 4, [4-(1H-1,3-Benzimidazol-1-yl-)phenyl]methanol] | 
38 | 260 ± 120 | 0.28 | 0.9 | 0.28 | 0.9 | COC(=O)c1ccccc1Oc1ccc(N)cc1 [compound 6, Methyl 2-(4-aminophenoxy)benzoate] | 
39 | > 1000 |  |  |  |  | O=C(NCCc1ccncc1)NC1CCCCC1 [compound 9] | IC50 (Notum [2]; [4]): > 1000 µM
40 | 570 ± 20 | 0.25 | 0.7 | 0.25 | 0.7 | N#Cc1ccc(Cn2cnc3ccccc32)cc1 [compound 12, 4-(Benzimidazol-1-ylmethyl)benzonitrile] | 
41 | 58 ± 8.2 | 0.33 | 0.9 | 0.33 | 0.9 | O=C(O)Cc1ccc(-c2ccccc2)cc1 [compound 14, 2-[(1,1’-Biphenyl)-4-yl]acetic acid] | 
42 | 34 ± 5.7 | 0.51 | 2.9 | 0.51 | 2.9 | COc1ccc(-c2cc[nH]n2)c(O)c1 [compound 17] | IC50 (Notum [2]; [5]): 31.6 µM
43 | 750 ± 17 | 0.29 | 1.2 | 0.29 | 1.2 | C[C@H]1CCCCN1C(=O)N1CCOCC1 [compound 19] | 
44 | 110 ± 21 | 0.46 | 2.7 | 0.46 | 2.7 | Nc1nonc1N1CCCCC1 [compound 20] | IC50 (Notum [2]; [5]): 126 µM
45 | > 1000 |  |  |  |  | CC(=O)Nc1ccc(OCC(=O)O)cc1 [compound 27, (4-Acetamidophenoxy)acetic acid] | IC50 (Notum [2]; [4]): > 1000 µM
46 | 120 ± 30 | 0.30 | 0.7 | 0.3 | 0.7 | CCc1ccc(OCC(=O)N2CCCCC2)cc1 [compound 31] | 
47 | ~1000 | 0.25 | 0.9 | 0.25 | 0.9 | c1cc2c(cc1CNC[C@H]1CCCO1)OCO2 [compound 32] | IC50 (Notum [2]; [4]): 1000 µM
48 | 330 ± 11 | 0.27 | 1.4 | 0.27 | 1.4 | NNC(=O)c1ccccc1OCc1ccccc1 [compound 34] | 
49 | 58 ± 19 | 0.33 | 1.9 | 0.33 | 1.9 | Cl.Oc1c(CN2CCOCC2)ccc2ccccc12 [compound 37] | 
50 | > 1000 |  |  |  |  | O=C(O)COc1ccc(N2C(=O)CCC2=O)cc1 [compound 39] | IC50 (Notum [2]; [4]): > 1000 µM
51 | > 1000 |  |  |  |  | CCC(=O)Nc1ccc(C)cc1O [compound 42] | IC50 (Notum [2]; [4]): > 1000 µM
52 | > 1000 |  |  |  |  | CCOc1ccc(CC(=O)O)cc1 [compound 48] | IC50 (Notum [2]; [4]): > 1000 µM
53 | > 1000 |  |  |  |  | O=C(O)COCc1ccccc1 [compound 52] | IC50 (Notum [2]; IC50 (µM)): > 1000 µM
54 | > 100 |  |  |  |  | O=C1CN(C(=O)COc2ccccc2)CCN1 [compound 56] | IC50 (Notum [2]; [4]): > 100 µM
